Assay results: the NIST ThermoML archive (doi:10.1021/acs.jced.6b01043)

Assay: relative permittivity at zero frequency (dimensionless); xn = mol fraction of the nth substance listed
Conditions: Gas, Reentrant cavity resonator

[Ar] [argon] + O=C=O
Conditions	relative permittivity at zero frequency
255.1 K, 2068.9 kPa, x1 = 0.0505	1.02661
260.14 K, 2446.9 kPa, x1 = 0.0505	1.03197
266.15 K, 2919.5 kPa, x1 = 0.0505	1.03887
271.4 K, 3365.6 kPa, x1 = 0.0505	1.04566
273.2 K, 454.8 kPa, x1 = 0.2491	1.004
273.2 K, 962.7 kPa, x1 = 0.2491	1.0088
273.2 K, 1001.6 kPa, x1 = 0.2491	1.0091
273.2 K, 2004.3 kPa, x1 = 0.2491	1.0195
273.2 K, 2014.8 kPa, x1 = 0.2491	1.0196
273.2 K, 3008.7 kPa, x1 = 0.2491	1.0314
273.2 K, 4029 kPa, x1 = 0.2491	1.0459
273.2 K, 4487 kPa, x1 = 0.2491	1.0535
273.21 K, 506.6 kPa, x1 = 0.2491	1.0045
279.73 K, 4266.1 kPa, x1 = 0.0505	1.06129
279.73 K, 4267.8 kPa, x1 = 0.0505	1.06132
283.23 K, 492.8 kPa, x1 = 0.2491	1.0042
283.23 K, 969.4 kPa, x1 = 0.0505	1.00945
283.23 K, 4007.7 kPa, x1 = 0.0505	1.05273
283.23 K, 4493.9 kPa, x1 = 0.0505	1.06407
283.23 K, 6491.3 kPa, x1 = 0.2491	1.0858
283.24 K, 1029.9 kPa, x1 = 0.0505	1.01008
283.24 K, 2002 kPa, x1 = 0.2491	1.0185
283.24 K, 2006.1 kPa, x1 = 0.0505	1.0212
283.24 K, 2011.5 kPa, x1 = 0.0505	1.02127
283.24 K, 2992.8 kPa, x1 = 0.2491	1.0294
283.24 K, 2993.3 kPa, x1 = 0.2491	1.0294
283.24 K, 2998.2 kPa, x1 = 0.0505	1.03482
283.24 K, 3973.7 kPa, x1 = 0.0505	1.05203
283.24 K, 3995.6 kPa, x1 = 0.2491	1.042
283.24 K, 4006.4 kPa, x1 = 0.2491	1.0421
283.24 K, 4991.8 kPa, x1 = 0.2491	1.0568
283.24 K, 5983.5 kPa, x1 = 0.2491	1.0748
283.24 K, 5987 kPa, x1 = 0.2491	1.0749
283.25 K, 1008.9 kPa, x1 = 0.2491	1.0088
283.25 K, 2012.2 kPa, x1 = 0.2491	1.0186
283.44 K, 4710.8 kPa, x1 = 0.0505	1.06985
289.87 K, 5632 kPa, x1 = 0.0505	1.09119
292.67 K, 6086.3 kPa, x1 = 0.0505	1.10382
293.27 K, 1007.1 kPa, x1 = 0.2491	1.0085
293.27 K, 2005.7 kPa, x1 = 0.2491	1.0177
293.27 K, 3006.2 kPa, x1 = 0.2491	1.0279
293.27 K, 4006.6 kPa, x1 = 0.2491	1.0394
293.27 K, 4993.4 kPa, x1 = 0.2491	1.0523
293.27 K, 5847.6 kPa, x1 = 0.2491	1.0651
293.27 K, 6499.2 kPa, x1 = 0.2491	1.0761
293.28 K, 3999.6 kPa, x1 = 0.2491	1.0393
293.28 K, 5994.6 kPa, x1 = 0.2491	1.0674
294.27 K, 6419.2 kPa, x1 = 0.0505	1.11591
313.26 K, 2602.6 kPa, x1 = 0.0505	1.02461
313.26 K, 3052 kPa, x1 = 0.0505	1.02963
313.26 K, 3592.1 kPa, x1 = 0.0505	1.03607
313.28 K, 7083.6 kPa, x1 = 0.0505	1.0967
313.29 K, 4089.6 kPa, x1 = 0.0505	1.04247
313.3 K, 4550.7 kPa, x1 = 0.0505	1.04884
313.3 K, 5083 kPa, x1 = 0.0505	1.05688
313.3 K, 5566.4 kPa, x1 = 0.0505	1.06488
313.3 K, 6028.4 kPa, x1 = 0.0505	1.07333
313.3 K, 6550 kPa, x1 = 0.0505	1.08408
313.3 K, 7027.1 kPa, x1 = 0.0505	1.09523
